The values below are quoted from earlier work in patent US20220346434A1, “ORAL COMPOSITIONS AND METHODS OF MANUFACTURE” (NICOVENTURES TRADING LIMITED, priority 2021, published 2022).

For data set [1] the following is noted: for solubility in water / aqueous environment: water or aqueous environment (e.g., saliva).
The conditions of data set [2]: converts via isomerization into trans-bixin (β-bixin).

For `CC(/C=C/C=C(C)/C=C/C(=O)O)=C\C=C\C=C(C)\C=C\C=C(C)\C=C\C(=O)O` (stereo in doubt) [norbixin, (2E,4E,6E,8E,10E,12E,14E,16E,18E)-4,8,13,17-tetramethylicosa-2,4,6,8,10,12,14,16,18-nonaenedioic acid], the “solubility in water / aqueous environment” value in data set [1] is given as “water soluble”.
With `C=C(C)[C@@H]1CCC(C)=C[C@H]1c1c(O)cc(CCCCC)cc1O` [CBD, cannabidiol, reference compound], the “solubility in water / aqueous environment” value in data set [1] is “insoluble in an aqueous environment”.
Consider `COC(=O)/C=C/C(C)=C\C=C\C(C)=C\C=C\C=C(C)\C=C\C=C(C)\C=C\C(=O)O` [bixin], for which, in data set [1] (fats and alcohols), the “solubility in fats and alcohols” value was “soluble in fats and alcohols”. Further, the “solubility in water / aqueous environment” value in data set [1] was “insoluble in water”. The “chemical stability when isolated” value in data set [2] is on record as “chemically unstable when isolated”.
